Data as given in US11339171B2, “MDM2 inhibitors” (Gan & Lee Pharmaceuticals, priority 2017, dated 2022).

Experiments:
[1] = test system: human osteosarcoma cell line SJSA-1; experiment: Inhibition of proliferation of human osteosarcoma cell line SJSA-1 (DAPI staining, In Cell Analyzer); details: Homo sapiens, SJSA-1, 72 h, read-out: IC50 (nM), inhibitory activity on proliferation of human osteosarcoma cell line SJSA-1, SJSA-1, incubated 72 h
[2] = target: T1, MDM2 (Homo sapiens, UniProt Q00987); experiment: Inhibition test of MDM2-P53 (GST-MDM2, Biotin-P53, Anti-GST-Tb, SA-XL665); type: binding
T1 construct: made in house
Summary of the method: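 HTRF-type assay using 4 nM GST-MDM2 (final), Biotin-P53, SA-XL665 and anti-GST-Tb in PBS with 0.1% BSA, 5 mM DTT and 1 mM AEBSF. Compounds in 5-fold serial dilutions over twelve points; incubation 90 min at 25° C with shaking before plate-reader read-out.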

T1 sequence (Q00987 whole entry): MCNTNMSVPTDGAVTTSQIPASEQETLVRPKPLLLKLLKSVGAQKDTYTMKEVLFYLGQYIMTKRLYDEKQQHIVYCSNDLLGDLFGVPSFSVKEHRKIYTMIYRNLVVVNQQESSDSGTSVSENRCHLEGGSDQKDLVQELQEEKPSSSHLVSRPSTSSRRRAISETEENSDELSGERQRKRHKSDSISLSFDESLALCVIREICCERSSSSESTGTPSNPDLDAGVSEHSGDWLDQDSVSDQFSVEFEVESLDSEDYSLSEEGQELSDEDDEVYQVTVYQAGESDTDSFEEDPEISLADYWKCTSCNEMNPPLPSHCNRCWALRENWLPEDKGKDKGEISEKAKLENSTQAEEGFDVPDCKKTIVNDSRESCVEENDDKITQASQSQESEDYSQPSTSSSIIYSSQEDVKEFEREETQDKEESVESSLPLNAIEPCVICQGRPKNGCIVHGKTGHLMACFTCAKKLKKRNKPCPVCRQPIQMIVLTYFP

Structure (SMILES): COc1ccc(-c2nc3c(n2C(C)C)[C@]2(C(=O)Nc4cc(Cl)ccc42)N(c2cc(Cl)c(=O)n(C)c2)C3=O)c(OC)c1 [Example R-52, (R)-6-chloro-5′-(5-chloro-1-methyl-6-oxo-1,6-dihydropyridin-3-yl)-2′-(2,4-dimethoxyphenyl)-3′-isopropyl-3′H-spiro[dihydroindole-3,4′-pyrrolo[3,4-d]imidazole]-2,6′(5′H)-dione]
- IC50 [1]: 22400 nM
- IC50 [2]: 540 nM

Structure (SMILES): COc1ccccc1-c1nc2c(n1C(C)C)[C@]1(C(=O)Nc3cc(Cl)ccc31)N(c1cc(Cl)c(=O)n(C)c1)C2=O [Example R-53, (R)-6-chloro-5′-(5-chloro-1-methyl-6-oxo-1,6-dihydropyridin-3-yl)-3′-isopropyl-2′-(2-methoxyphenyl)-3′H-spiro[dihydroindole-3,4′-pyrrolo[3,4-d]imidazole]-2,6′(5′H)-dione]
- IC50 [1]: 77400 nM
- IC50 [2]: 3770 nM

Structure (SMILES): COc1ncc(-c2nc3c(n2C(C)C)[C@]2(C(=O)Nc4cc(Cl)ccc42)N(c2cccc(C)c2)C3=O)c(OC)n1 [Example R-55, (R)-6-chloro-2′-(2,4-dimethoxypyrimidin-5-yl)-3′-isopropyl-5′-(m-tolyl)-3′H-spiro[dihydroindole-3,4′-pyrrolo[3,4-d]imidazole]-2,6′(5′H)-dione]
- IC50 [1]: 9940 nM
- IC50 [2]: 437 nM

Structure (SMILES): COc1ncc(-c2nc3c(n2C(C)C)[C@]2(C(=O)Nc4cc(Cl)ccc42)N(c2cc(C)ccc2C)C3=O)c(OC)n1 [Example R-56, (R)-6-chloro-2′-(2,4-dimethoxypyrimidin-5-yl)-5′-(2,5-dimethylphenyl)-3′-isopropyl-3′H-spiro[dihydroindole-3,4′-pyrrolo[3,4-d]imidazole]-2,6′(5′H)-dione]
- IC50 [1]: 3480 nM
- IC50 [2]: 155 nM

Structure (SMILES): COc1cccc(F)c1-c1nc2c(n1C(C)C)[C@]1(C(=O)Nc3cc(Cl)ccc31)N(c1cc(Cl)ccc1C)C2=O [Example R-57, (R)-6-chloro-5′-(5-chloro-2-methylphenyl)-2′-(2-fluoro-6-methoxyphenyl)-3′-isopropyl-3′H-spiro[dihydroindole-3,4′-pyrrolo[3,4-d]imidazole]-2,6′(5′H)-dione]
- IC50 [1]: 3960 nM
- IC50 [2]: 427 nM

Structure (SMILES): COc1cc(Cl)cc(N2C(=O)c3nc(-c4cnc(OC)nc4OC)n(C(C)C)c3[C@]23C(=O)Nc2cc(Cl)ccc23)c1 [Example R-58, (R)-6-chloro-5′-(3-chloro-5-methoxyphenyl)-2′-(2,4-dimethoxypyrimidin-5-yl)-3′-isopropyl-3′H-spiro[dihydroindole-3,4′-pyrrolo[3,4-d]imidazole]-2,6′(5′H)-dione]
- IC50 [1]: 5890 nM
- IC50 [2]: 1430 nM

Structure (SMILES): COc1ccc(-c2nc3c(n2C(C)C)[C@]2(C(=O)Nc4cc(Cl)ccc42)N(c2cc(Cl)cnc2C)C3=O)c(OC)c1 [Example R-61, (R)-6-chloro-5′-(5-chloro-2-methylpyridin-3-yl)-2′-(2,4-dimethoxyphenyl)-3′-isopropyl-3′H-spiro[dihydroindole-3,4′-pyrrolo[3,4-d]imidazole]-2,6′(5′H)-dione]
- IC50 [1]: 136 nM
- IC50 [2]: 136 nM

Structure (SMILES): COc1ccc(C)cc1-c1nc2c(n1C(C)C)[C@]1(C(=O)Nc3cc(Cl)ccc31)N(c1cc(Cl)ccc1C)C2=O [Example R-62, (R)-6-chloro-5′-(5-chloro-2-methylphenyl)-3′-isopropyl-2′-(2-methoxy-5-methylphenyl)-3′H-spiro[dihydroindole-3,4′-pyrrolo[3,4-d]imidazole]-2,6′(5′H)-dione]
- IC50 [1]: 4360 nM
- IC50 [2]: 252 nM

Structure (SMILES): COc1cc(N)ccc1-c1nc2c(n1C(C)C)[C@]1(C(=O)Nc3cc(Cl)ccc31)N(c1cc(Cl)ccc1F)C2=O [Example R-66, (R)-2′-(4-amino-2-methoxyphenyl)-6-chloro-5′-(5-chloro-2-fluorophenyl)-3′-isopropyl-3′H-spiro[dihydroindole-3,4′-pyrrolo[3,4-d]imidazole]-2,6′(5′H)-dione]
- IC50 [1]: 3860 nM
- IC50 [2]: 85.9 nM

Structure (SMILES): COc1cc(N)ccc1-c1nc2c(n1C(C)C)[C@]1(C(=O)Nc3cc(Cl)ccc31)N(c1cc(F)cc(Cl)c1)C2=O [Example R-67, (R)-2′-(4-amino-2-methoxyphenyl)-6-chloro-5′-(3-chloro-5-fluorophenyl)-3′-isopropyl-3′H-spiro[dihydroindole-3,4′-pyrrolo[3,4-d]imidazole]-2,6′(5′H)-dione]
- IC50 [1]: 8490 nM
- IC50 [2]: 355 nM

Structure (SMILES): COc1cc(OC(C)C)ncc1-c1nc2c(n1C(C)C)[C@]1(C(=O)Nc3cc(Cl)ccc31)N(c1cc(Cl)ccc1C)C2=O [Example R-69, (R)-6-chloro-5′-(5-chloro-2-methylphenyl)-2′-(6-isopropoxy-4-methoxypyridin-3-yl)-3′-isopropyl-3′H-spiro[dihydroindole-3,4′-pyrrolo[3,4-d]imidazole]-2,6′(5′H)-dione]
- IC50 [1]: 6580 nM
- IC50 [2]: 636 nM

Structure (SMILES): COc1ccc(CC(=O)N(C)C)cc1-c1nc2c(n1C(C)C)[C@]1(C(=O)Nc3cc(Cl)ccc31)N(c1cc(Cl)ccc1C)C2=O [Example R-70, (R)-2-(3-(6-chloro-5′-(5-chloro-2-methylphenyl)-3′-isopropyl-2,6′-dioxo-5′,6′-dihydro-3′H-spiro[dihydroindole-3,4′-pyrrolo[3,4-d]imidazole]-2′-yl)-4-methoxyphenyl)-N,N-dimethylacetamide]
- IC50 [1]: 4210 nM
- IC50 [2]: 111 nM

Structure (SMILES): COc1ccc(N2C(=O)c3nc(-c4ccc(N)cc4OC)n(C(C)C)c3[C@]23C(=O)Nc2cc(Cl)ccc23)cc1Cl [Example R-71, (R)-2′-(4-amino-2-methoxyphenyl)-6-chloro-5′-(3-chloro-4-methoxyphenyl)-3′-isopropyl-3′H-spiro[dihydroindole-3,4′-pyrrolo[3,4-d]imidazole]-2,6′(5′H)-dione]
- IC50 [1]: 7020 nM
- IC50 [2]: 100 nM

Structure (SMILES): CCOc1cc(OC)c(-c2nc3c(n2C(C)C)[C@]2(C(=O)Nc4cc(Cl)ccc42)N(c2cc(Cl)ccc2C)C3=O)cn1 [Example R-72, (R)-6-chloro-5′-(5-chloro-2-methylphenyl)-2′-(6-ethoxy-4-methoxypyridin-3-yl)-3′-isopropyl-3′H-spiro[dihydroindole-3,4′-pyrrolo[3,4-d]imidazole]-2,6′(5′H)-dione]
- IC50 [1]: 3480 nM
- IC50 [2]: 214 nM

Structure (SMILES): COc1cc(N)c(C)cc1-c1nc2c(n1C(C)C)[C@]1(C(=O)Nc3cc(Cl)ccc31)N(c1cc(Cl)ccc1C)C2=O [Example R-74, (R)-2′-(4-amino-2-methoxy-5-methylphenyl)-6-chloro-5′-(5-chloro-2-methylphenyl)-3′-isopropyl-3′H-spiro[dihydroindole-3,4′-pyrrolo[3,4-d]imidazole]-2,6′(5′H)-dione]
- IC50 [1]: 1840 nM
- IC50 [2]: 93.4 nM

Structure (SMILES): COc1cc(N)c(F)cc1-c1nc2c(n1C(C)C)[C@]1(C(=O)Nc3cc(Cl)ccc31)N(c1cc(Cl)ccc1C)C2=O [Example R-75, (R)-2′-(4-amino-5-fluoro-2-methoxyphenyl)-6-chloro-5′-(5-chloro-2-methylphenyl)-3′-isopropyl-3′H-spiro[dihydroindole-3,4′-pyrrolo[3,4-d]imidazole]-2,6′(5′H)-dione]
- IC50 [1]: 3040 nM
- IC50 [2]: 122 nM

Structure (SMILES): COc1cc(N(C)C)c(F)cc1-c1nc2c(n1C(C)C)[C@]1(C(=O)Nc3cc(Cl)ccc31)N(c1cc(Cl)ccc1C)C2=O [Example R-78]
- IC50 [1]: 1360 nM
- IC50 [2]: 222 nM

Structure (SMILES): COc1cc(N(C)C)ccc1-c1nc2c(n1C(C)C)[C@]1(C(=O)Nc3cc(Cl)ccc31)N(c1cc(Cl)ccc1F)C2=O [Example R-81, (R)-6-chloro-5′-(5-chloro-2-fluorophenyl)-2′-(4-(dimethylamino)-2-methoxyphenyl)-3′-isopropyl-3′H-spiro[dihydroindole-3,4′-pyrrolo[3,4-d]imidazole]-2,6′(5′H)-dione]
- IC50 [1]: 1600 nM
- IC50 [2]: 53.3 nM

Structure (SMILES): COc1cc(OC)c(-c2nc3c(n2C(C)C)[C@]2(C(=O)Nc4cc(Cl)ccc42)N(c2cc(Cl)ccc2C)C3=O)cc1C [Example R-83, (R)-6-chloro-5′-(5-chloro-2-methylphenyl)-2′-(2,4-dimethoxy-5-methylphenyl)-3′-isopropyl-3′H-spiro[dihydroindole-3,4′-pyrrolo[3,4-d]imidazole]-2,6′(5′H)-dione]
- IC50 [1]: 589 nM
- IC50 [2]: 87.6 nM

Structure (SMILES): COc1cc(C(F)(F)F)ccc1-c1nc2c(n1C(C)C)[C@]1(C(=O)Nc3cc(Cl)ccc31)N(c1cc(Cl)ccc1C)C2=O [Example R-85, (R)-6-chloro-5′-(5-chloro-2-methylphenyl)-3′-isopropyl-2′-(2-methoxy-4-(trifluoromethyl)phenyl)-3′H-spiro[dihydroindole-3,4′-pyrrolo[3,4-d]imidazole]-2,6′(5′H)-dione]
- IC50 [1]: 2190 nM
- IC50 [2]: 494 nM

Structure (SMILES): COc1cc(OC(F)(F)F)ccc1-c1nc2c(n1C(C)C)[C@]1(C(=O)Nc3cc(Cl)ccc31)N(c1cc(Cl)ccc1C)C2=O [Example R-87, (R)-6-chloro-5′-(5-chloro-2-methylphenyl)-3′-isopropyl-2′-(2-methoxy-4-(trifluoromethoxy)phenyl)-3′H-spiro[dihydroindole-3,4′-pyrrolo[3,4-d]imidazole]-2,6′(5′H)-dione]
- IC50 [1]: 7350 nM
- IC50 [2]: 473 nM

Structure (SMILES): COc1cc(N(C)C)c(C)cc1-c1nc2c(n1C(C)C)[C@]1(C(=O)Nc3cc(Cl)ccc31)N(c1cc(Cl)ccc1C)C2=O [Example R-91, (R)-6-chloro-5′-(5-chloro-2-methylphenyl)-2′-(4-(dimethylamino)-2-methoxy-5-methylphenyl)-3′-isopropyl-3′H-spiro[dihydroindole-3,4′-pyrrolo[3,4-d]imidazole]-2,6′(5′H)-dione]
- IC50 [1]: 993 nM
- IC50 [2]: 461 nM

Structure (SMILES): COc1cc(OC)c(-c2nc3c(n2C(C)C)[C@]2(C(=O)Nc4cc(Cl)ccc42)N(c2cc(Cl)ccc2C)C3=O)cc1F [Example R-92, (R)-6-chloro-5′-(5-chloro-2-methylphenyl)-2′-(5-fluoro-2,4-dimethoxyphenyl)-3′-isopropyl-3′H-spiro[dihydroindole-3,4′-pyrrolo[3,4-d]imidazole]-2,6′(5′H)-dione]
- IC50 [1]: 4880 nM
- IC50 [2]: 378 nM
